According to the supplement of paper PMC10307832:

Legend:
Assay in all cases: relative viability (nuclei count vs DMSO), 5 days (fraction); higher = more cells survive
Tivantinib = compound: O=C1NC(=O)[C@@H](c2cn3c4c(cccc24)CCC3)[C@@H]1c1c[nH]c2ccccc12 [Tivantinib]
Method in brief: (§1)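 Vehicle-anchored 1536-well plates of lung cancer cell lines, held overnight at 37 °C, were pinned with five library-drug doses (not always all listed) spaced by √10. No medium change followed over the next 5 days, after which the cells were fixed, permeabilised and Hoechst-stained together and imaged at 4×. Nuclei were counted with MetaXpress, and viability is treated-well nuclei over vehicle-well nuclei, taken as a median across plates. Plates passed with control CV below 25% and at least one doubling.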

Crenolanib = compound: CC1(COc2ccc3c(c2)ncn3-c2ccc3cccc(N4CCC(N)CC4)c3n2)COC1 [Crenolanib]
Method in brief: as §1

Tivantinib + Pemetrexed = compound: O=C1NC(=O)[C@@H](c2cn3c4c(cccc24)CCC3)[C@@H]1c1c[nH]c2ccccc12 [Tivantinib] + Nc1nc2[nH]cc(CCc3ccc(C(=O)N[C@@H](CCC(=O)O)C(=O)O)cc3)c2c(=O)[nH]1 [Pemetrexed] (partner 0.2 µM)
Method in brief: (§2)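 One day after seeding in 1536-well plates, lung cancer cell lines were dosed by pin tool. Dosing was either single-drug or a fixed anchor-drug dose plus five library-drug doses (not always all listed) in √10 steps. After 5 days, nuclei were stained in one fix-and-stain step and counted on 4× images, and relative viability is the nuclei count of treated wells over that of vehicle wells, given as the median of duplicate plates.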

Crenolanib + OSI-027 = compound: CC1(COc2ccc3c(c2)ncn3-c2ccc3cccc(N4CCC(N)CC4)c3n2)COC1 [Crenolanib] + COc1cccc2cc(-c3nc([C@H]4CC[C@H](C(=O)O)CC4)n4ncnc(N)c34)[nH]c12 [OSI-027] (partner 0.5 µM)
Method in brief: as §2

| Cell Line | relative viability (Tivantinib; 0.01 µM) | relative viability (Tivantinib; 0.03162 µM) | relative viability (Tivantinib; 0.1 µM) | relative viability (Tivantinib; 0.3162 µM) | relative viability (Crenolanib; 0.01 µM) | relative viability (Crenolanib; 0.03162 µM) | relative viability (Crenolanib; 0.1 µM) | relative viability (Crenolanib; 0.3162 µM) | relative viability (Crenolanib; 1 µM) | relative viability (Tivantinib + Pemetrexed; first compound 0.01 µM) | relative viability (Tivantinib + Pemetrexed; first compound 0.03162 µM) | relative viability (Tivantinib + Pemetrexed; first compound 0.1 µM) | relative viability (Tivantinib + Pemetrexed; first compound 0.3162 µM) | relative viability (Crenolanib + OSI-027; first compound 0.01 µM) | relative viability (Crenolanib + OSI-027; first compound 0.03162 µM) | relative viability (Crenolanib + OSI-027; first compound 0.1 µM) | relative viability (Crenolanib + OSI-027; first compound 0.3162 µM) | relative viability (Crenolanib + OSI-027; first compound 1 µM) |
| --- | --- | --- | --- | --- | --- | --- | --- | --- | --- | --- | --- | --- | --- | --- | --- | --- | --- | --- |
| 201T | 0.966 | 0.938 | 0.924 | 1.01 | 0.97 | 0.983 | 0.972 | 0.988 | 1.01 | 0.328 | 0.281 | 0.357 | 0.319 | 0.505 | 0.605 | 0.695 | 0.763 | 0.692 |
| A549 | 0.993 | 0.979 | 0.793 | 0.992 | 1.05 | 0.977 | 0.959 | 1.12 | 0.949 | – | – | – | – | – | – | – | – | – |
| A-427 | 0.959 | 0.978 | 0.976 | 1.02 | 0.953 | 0.969 | 0.976 | 0.948 | 0.927 | 1.01 | 1.06 | 0.99 | 0.961 | 0.519 | 0.54 | 0.421 | 0.48 | 0.431 |
| ABC-1 | 0.887 | 0.98 | 0.821 | 0.805 | 1.08 | 0.876 | 0.855 | 0.985 | 0.795 | – | – | – | – | 0.526 | 0.536 | 0.522 | 0.531 | 0.45 |
| BEN | 1 | 0.854 | 0.873 | 0.786 | 0.989 | 0.877 | 0.962 | 0.988 | 0.965 | 0.724 | 0.71 | 0.636 | 0.684 | 0.302 | 0.339 | 0.305 | 0.321 | 0.314 |
| CAL-12T | 1.1 | 0.853 | 0.969 | 0.627 | 1.07 | 0.948 | 0.984 | 1.05 | 0.992 | 1.11 | 1.3 | 1.18 | 1.21 | 0.844 | 0.634 | 0.643 | 0.712 | 0.693 |
| COR-L23 | 1.06 | 0.933 | 0.942 | 1.11 | 1.04 | 1.02 | 0.952 | 1.04 | 0.915 | 0.194 | 0.195 | 0.204 | 0.195 | 0.721 | 0.849 | 0.654 | 0.81 | 0.714 |
| COR-L 105 | 0.912 | 0.734 | 0.892 | 0.537 | 1.03 | 0.953 | 0.852 | 0.963 | 0.915 | 1.02 | 1.05 | 1.08 | 0.696 | 0.842 | 0.783 | 0.642 | 1 | 0.691 |
| Calu-6 | 0.989 | 1.03 | 0.977 | 0.989 | 1.1 | 0.992 | 0.978 | 1.08 | 0.959 | – | – | – | – | – | – | – | – | – |
| ChaGo-K-1 | 0.982 | 1.01 | 0.968 | 0.909 | 0.933 | 0.977 | 0.941 | 0.931 | 0.937 | 0.264 | 0.254 | 0.264 | 0.251 | 0.659 | 0.634 | 0.572 | 0.631 | 0.594 |
| EBC-1 | 1.05 | 0.859 | 0.933 | 0.994 | 1.06 | 0.961 | 0.989 | 1.03 | 1.03 | – | – | – | – | – | – | – | – | – |
| EKVX | 0.953 | 0.957 | 0.936 | 0.371 | 1.06 | 0.871 | 0.916 | 1.05 | 1 | 0.344 | 0.413 | 0.425 | 0.203 | 0.737 | 0.78 | 0.69 | 0.683 | 0.737 |
| EMC-BAC-2 | 1.01 | 0.962 | 0.997 | 0.998 | 1.08 | – | 0.994 | 1.13 | 0.84 | 0.457 | 0.448 | 0.475 | 0.479 | 0.438 | 0.376 | 0.411 | 0.424 | 0.398 |
| EPLC-272H | 1.05 | 0.88 | 0.851 | 0.455 | 0.905 | 0.893 | 0.838 | 1.04 | 1.11 | 0.408 | 0.356 | 0.344 | 0.182 | 0.315 | 0.288 | 0.249 | 0.296 | 0.329 |
| H3255 | 0.971 | 0.934 | 1 | – | 1.02 | 0.935 | 0.929 | 0.984 | 0.918 | 0.554 | 0.586 | 0.598 | – | 0.586 | 0.544 | 0.514 | 0.573 | 0.588 |
| HARA | 0.982 | 0.775 | 0.941 | 0.625 | 1.07 | 1 | 0.945 | 1 | 1.05 | 0.279 | 0.252 | 0.263 | 0.24 | 0.639 | 0.501 | 0.319 | 0.591 | 0.396 |
| HCC-15 | 0.988 | 0.91 | 0.977 | 1.08 | 1.01 | 0.991 | 0.93 | 1.08 | 0.803 | 0.215 | 0.221 | 0.227 | 0.224 | 0.742 | 0.695 | 0.676 | 0.616 | 0.393 |
| HCC-44 | 1.02 | 1.03 | 1.02 | 0.908 | 1.04 | 0.965 | 0.994 | 0.986 | 0.806 | 0.62 | 0.654 | 0.616 | 0.664 | 0.498 | 0.496 | 0.611 | 0.519 | 0.434 |
| HCC-78 | 0.979 | 0.922 | 0.917 | 0.655 | 1.01 | 0.808 | 0.84 | 1.02 | 0.804 | 0.893 | 0.878 | 0.933 | 0.879 | 0.433 | 0.32 | – | 0.345 | 0.338 |
